Like-named read-outs stand apart in the source and are kept apart here.
Legend:
[1] = system: HCC1806; assay: Cell viability assay (CellTiter-Glo); assay type: cell-based, Human; settings: HCC1806, 7 days, CellTiter-Glo, read-out: IC50 (nM) in cell viability assay
[2] = target: PARG (Homo sapiens, UniProt Q86W56); assay: Biochemical assay (PARG, TFMU-ADPr substrate); settings: PARG, TFMU-ADPr substrate
PARG, sequence (Q86W56 whole entry): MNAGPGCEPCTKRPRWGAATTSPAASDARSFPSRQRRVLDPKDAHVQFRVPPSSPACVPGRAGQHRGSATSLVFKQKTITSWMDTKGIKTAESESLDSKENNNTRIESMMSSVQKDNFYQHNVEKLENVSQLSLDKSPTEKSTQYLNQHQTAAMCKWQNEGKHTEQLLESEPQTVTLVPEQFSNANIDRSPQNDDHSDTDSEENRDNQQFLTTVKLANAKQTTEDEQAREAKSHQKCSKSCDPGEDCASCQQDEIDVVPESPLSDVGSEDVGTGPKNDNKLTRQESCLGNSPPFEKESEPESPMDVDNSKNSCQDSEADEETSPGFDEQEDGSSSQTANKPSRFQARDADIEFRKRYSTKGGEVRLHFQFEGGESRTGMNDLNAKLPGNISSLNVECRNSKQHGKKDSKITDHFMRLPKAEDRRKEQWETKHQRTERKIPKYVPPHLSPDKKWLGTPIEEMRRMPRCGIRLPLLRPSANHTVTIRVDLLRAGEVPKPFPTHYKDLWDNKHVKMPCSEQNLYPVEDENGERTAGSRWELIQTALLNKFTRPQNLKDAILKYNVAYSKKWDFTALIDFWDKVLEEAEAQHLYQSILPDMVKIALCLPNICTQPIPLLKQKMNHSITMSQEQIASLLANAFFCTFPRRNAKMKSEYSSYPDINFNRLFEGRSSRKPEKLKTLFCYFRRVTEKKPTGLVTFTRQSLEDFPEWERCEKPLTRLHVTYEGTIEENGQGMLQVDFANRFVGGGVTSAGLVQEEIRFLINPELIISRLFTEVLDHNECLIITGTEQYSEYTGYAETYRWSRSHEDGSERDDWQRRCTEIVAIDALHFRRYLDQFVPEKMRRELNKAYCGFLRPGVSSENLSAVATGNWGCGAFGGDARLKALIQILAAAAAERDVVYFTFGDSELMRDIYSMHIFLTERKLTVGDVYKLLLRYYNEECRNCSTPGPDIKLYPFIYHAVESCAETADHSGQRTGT

| Compound | IC50 ([1]; Homo sapiens, HCC1806, 168 h) [nM] | IC50 [2] [nM] | IC50 [1] [nM] |
| --- | --- | --- | --- |
| CC1(NS(=O)(=O)c2cc(N3CCN(C(=O)C4CNC4)CC3)c3cnc(-c4nnc(C(F)(F)F)s4)n3c2)CC1 [Example 277, 8-(4-(azetidine-3-carbonyl)piperazin-1-yl)-N-(1-methylcyclopropyl)-3-(5-(trifluoromethyl)-1,3,4-thiadiazol-2-yl)imidazo[1,5-a]pyridine-6-sulfonamide] | 4470 | 25.1 |  |
| N#CC1(NS(=O)(=O)c2cc(N3CCN(C(=O)[C@@H]4C[C@@H](O)CN4)CC3)c3cnc(-c4nnc(C(F)(F)F)s4)n3c2)CC1 [Example 279, N-(1-cyanocyclopropyl)-8-(4-((2S,4R)-4-hydroxypyrrolidine-2-carbonyl)piperazin-1-yl)-3-(5-(trifluoromethyl)-1,3,4-thiadiazol-2-yl)imidazo[1,5-a]pyridine-6-sulfonamide] | 29900 | 95.5 |  |
| N#CC1(NS(=O)(=O)c2cc(N3CCN(C(=O)C4NCCS4)CC3)c3cnc(-c4nnc(C(F)(F)F)s4)n3c2)CC1 (stereo not shown) [Example 281, N-(1-cyanocyclopropyl)-8-(4-(thiazolidine-2-carbonyl)piperazin-1-yl)-3-(5-(trifluoromethyl)-1,3,4-thiadiazol-2-yl)imidazo[1,5-a]pyridine-6-sulfonamide] | 229 | 66.1 |  |
| CC1(NS(=O)(=O)c2cc(N3CCN(C(=O)C(O)C(F)(F)F)CC3)c3cnc(-c4nnc(C(F)(F)F)s4)n3c2)CC1 (stereo not shown) [Example 282, N-(1-methylcyclopropyl)-8-(4-(3,3,3-trifluoro-2-hydroxypropanoyl)piperazin-1-yl)-3-(5-(trifluoromethyl)-1,3,4-thiadiazol-2-yl)imidazo[1,5-a]pyridine-6-sulfonamide] | 84.3 | 20 |  |
| CC1(NS(=O)(=O)c2cc(N3CCN(C(=O)[C@H]4CCN4)CC3)c3cnc(-c4nnc(C(F)(F)F)s4)n3c2)CC1 [Example 286, (R)-8-(4-(azetidine-2-carbonyl)piperazin-1-yl)-N-(1-methylcyclopropyl)-3-(5-(trifluoromethyl)-1,3,4-thiadiazol-2-yl)imidazo[1,5-a]pyridine-6-sulfonamide] | 235 | 3.98 |  |
| COC1(C(=O)N2CCN(c3cc(S(=O)(=O)NC4(C#N)CC4)cn4c(-c5nnc(C(F)F)s5)ncc34)CC2)CNC1 [Example 289, N-(1-cyanocyclopropyl)-3-(5-(difluoromethyl)-1,3,4-thiadiazol-2-yl)-8-(4-(3-methoxyazetidine-3-carbonyl)piperazin-1-yl)imidazo[1,5-a]pyridine-6-sulfonamide] | 6150 | 1.51 |  |
| CO[C@H]1C[C@H](C(=O)N2CCN(c3cc(S(=O)(=O)NC4(C)CC4)cn4c(-c5nnc(C(F)(F)F)s5)ncc34)CC2)C1 [Example 290, 8-(4-((1r,3r)-3-methoxycyclobutane-1-carbonyl)piperazin-1-yl)-N-(1-methylcyclopropyl)-3-(5-(trifluoromethyl)-1,3,4-thiadiazol-2-yl)imidazo[1,5-a]pyridine-6-sulfonamide] | 151 | 14.5 |  |
| CC1(NS(=O)(=O)c2cc(N3CCN(C(=O)C4(O)CC4)CC3)c3cnc(-c4nnc(C(F)(F)F)s4)n3c2)CC1 [Example 291, 8-(4-(1-hydroxycyclopropane-1-carbonyl)piperazin-1-yl)-N-(1-methylcyclopropyl)-3-(5-(trifluoromethyl)-1,3,4-thiadiazol-2-yl)imidazo[1,5-a]pyridine-6-sulfonamide] | 65 | 9.55 |  |
| CC1(NS(=O)(=O)c2cc(N3CCN(C(=O)C4CCOCC4)CC3)c3cnc(-c4nnc(C(F)(F)F)s4)n3c2)CC1 [Example 292, N-(1-methylcyclopropyl)-8-(4-(tetrahydro-2H-pyran-4-carbonyl)piperazin-1-yl)-3-(5-(trifluoromethyl)-1,3,4-thiadiazol-2-yl)imidazo[1,5-a]pyridine-6-sulfonamide] | 40 | 4.57 |  |
| CC1(NS(=O)(=O)c2cc(N3CCN(C(=O)C4CCOC4)CC3)c3cnc(-c4nnc(C(F)(F)F)s4)n3c2)CC1 (stereo not shown) [Example 293, N-(1-methylcyclopropyl)-8-(4-(tetrahydrofuran-3-carbonyl)piperazin-1-yl)-3-(5-(trifluoromethyl)-1,3,4-thiadiazol-2-yl)imidazo[1,5-a]pyridine-6-sulfonamide] | 97 | 9.12 |  |
| CC(C)N1CC(C(=O)N2CCN(c3cc(S(=O)(=O)NC4(C#N)CC4)cn4c(-c5nnc(C(F)F)s5)ncc34)C[C@H]2C)C1 [Example 295, (R)-N-(1-cyanocyclopropyl)-3-(5-(difluoromethyl)-1,3,4-thiadiazol-2-yl)-8-(4-(1-isopropylazetidine-3-carbonyl)-3-methylpiperazin-1-yl)imidazo[1,5-a]pyridine-6-sulfonamide] | 2820 | 39.8 |  |
| N#CC1(NS(=O)(=O)c2cc(N3CCN(C(=O)C4C5COCC54)CC3)c3cnc(-c4nnc(C(F)(F)F)s4)n3c2)CC1 (stereo not shown) [Example 297, 8-(4-(3-oxabicyclo[3.1.0]hexane-6-carbonyl)piperazin-1-yl)-N-(1-cyanocyclopropyl)-3-(5-(trifluoromethyl)-1,3,4-thiadiazol-2-yl)imidazo[1,5-a]pyridine-6-sulfonamide] | 362 | 55 |  |
| N#CC1(NS(=O)(=O)c2cc(N3CCN(C(=O)[C@@H]4CCCO4)CC3)c3cnc(-c4nnc(C(F)(F)F)s4)n3c2)CC1 [Example 301, (S)-N-(1-cyanocyclopropyl)-8-(4-(tetrahydrofuran-2-carbonyl)piperazin-1-yl)-3-(5-(trifluoromethyl)-1,3,4-thiadiazol-2-yl)imidazo[1,5-a]pyridine-6-sulfonamide] | 436 | 50.1 |  |
| C[C@@H]1CN(c2cc(S(=O)(=O)NC3(C#N)CC3)cn3c(-c4nnc(C(F)(F)F)s4)ncc23)CCN1C(=O)C1CCO1 (stereo partly drawn) [Example 302, N-(1-cyanocyclopropyl)-8-((3R)-3-methyl-4-(oxetane-2-carbonyl)piperazin-1-yl)-3-(5-(trifluoromethyl)-1,3,4-thiadiazol-2-yl)imidazo[1,5-a]pyridine-6-sulfonamide] | 329 | 15.4 |  |
| N#CC1(NS(=O)(=O)c2cc(N3CCN(C(=O)[C@H]4CCCO4)CC3)c3cnc(-c4nnc(C(F)(F)F)s4)n3c2)CC1 [Example 303, (R)-N-(1-cyanocyclopropyl)-8-(4-(tetrahydrofuran-2-carbonyl)piperazin-1-yl)-3-(5-(trifluoromethyl)-1,3,4-thiadiazol-2-yl)imidazo[1,5-a]pyridine-6-sulfonamide] | 435 | 20.9 |  |

More lines, now with the values ahead:

| IC50 ([1]; Homo sapiens, HCC1806, 168 h) [nM] | IC50 [2] [nM] | IC50 [1] [nM] | Compound |
| --- | --- | --- | --- |
| 700 | 41.7 |  | N#CC1(NS(=O)(=O)c2cc(N3CCN(C(=O)C4(N)CC4)CC3)c3cnc(-c4nnc(C(F)(F)F)s4)n3c2)CC1 [Example 274, 8-(4-(1-aminocyclopropane-1-carbonyl)piperazin-1-yl)-N-(1-cyanocyclopropyl)-3-(5-(trifluoromethyl)-1,3,4-thiadiazol-2-yl)imidazo[1,5-a]pyridine-6-sulfonamide] |
| 472 | 22.9 |  | CNC1(C(=O)N2CCN(c3cc(S(=O)(=O)NC4(C#N)CC4)cn4c(-c5nnc(C(F)(F)F)s5)ncc34)CC2)CC1 [Example 275, N-(1-cyanocyclopropyl)-8-(4-(1-(methylamino)cyclopropane-1-carbonyl)piperazin-1-yl)-3-(5-(trifluoromethyl)-1,3,4-thiadiazol-2-yl)imidazo[1,5-a]pyridine-6-sulfonamide] |
| 1750 | 45.7 |  | N#CC1(NS(=O)(=O)c2cc(N3CCN(C(=O)CO)CC3)c3cnc(-c4nnc(C(F)(F)F)s4)n3c2)CC1 [Example 276, N-(1-cyanocyclopropyl)-8-(4-(2-hydroxyacetyl)piperazin-1-yl)-3-(5-(trifluoromethyl)-1,3,4-thiadiazol-2-yl)imidazo[1,5-a]pyridine-6-sulfonamide] |
| 1980 | 40.7 |  | N#CC1(NS(=O)(=O)c2cc(N3CCN(C(=O)C4(F)CNC4)CC3)c3cnc(-c4nnc(C(F)(F)F)s4)n3c2)CC1 [Example 278, N-(1-cyanocyclopropyl)-8-(4-(3-fluoroazetidine-3-carbonyl)piperazin-1-yl)-3-(5-(trifluoromethyl)-1,3,4-thiadiazol-2-yl)imidazo[1,5-a]pyridine-6-sulfonamide] |
| 539 | 3.8 |  | N#CC1(NS(=O)(=O)c2cc(N3CCN(C(=O)C4CC(O)C4)CC3)c3cnc(-c4nnc(C(F)(F)F)s4)n3c2)CC1 (stereo not shown) [Example 283, N-(1-cyanocyclopropyl)-8-(4-(3-hydroxycyclobutane-1-carbonyl)piperazin-1-yl)-3-(5-(trifluoromethyl)-1,3,4-thiadiazol-2-yl)imidazo[1,5-a]pyridine-6-sulfonamide] |
| 38.7 | 3.02 |  | COC(C)(C)C(=O)N1CCN(c2cc(S(=O)(=O)NC3(C#N)CC3)cn3c(-c4nnc(C(F)(F)F)s4)ncc23)CC1 [Example 296, N-(1-cyanocyclopropyl)-8-(4-(2-methoxy-2-methylpropanoyl)piperazin-1-yl)-3-(5-(trifluoromethyl)-1,3,4-thiadiazol-2-yl)imidazo[1,5-a]pyridine-6-sulfonamide] |
| 1030 | 24 |  | CC1(C(=O)N2CCN(c3cc(S(=O)(=O)NC4(C#N)CC4)cn4c(-c5nnc(C(F)(F)F)s5)ncc34)CC2)COC1 [Example 299, N-(1-cyanocyclopropyl)-8-(4-(3-methyloxetane-3-carbonyl)piperazin-1-yl)-3-(5-(trifluoromethyl)-1,3,4-thiadiazol-2-yl)imidazo[1,5-a]pyridine-6-sulfonamide] |
|  | 31.6 | 403 | N#CC1(NS(=O)(=O)c2cc(N3CCN(C(=O)C4CCO4)CC3)c3cnc(-c4nnc(C(F)(F)F)s4)n3c2)CC1 (stereo not shown) [Example 300, N-(1-cyanocyclopropyl)-8-(4-(oxetane-2-carbonyl)piperazin-1-yl)-3-(5-(trifluoromethyl)-1,3,4-thiadiazol-2-yl)imidazo[1,5-a]pyridine-6-sulfonamide] |

Reference: US20260258035A1, “FIVE-MEMBERED AND SIX-MEMBERED NITROGEN-CONTAINING COMPOUND, AND INTERMEDIATE, PREPARATION METHOD AND USE THEREOF” (HANGZHOU SYNRX THERAPEUTICS BIOMEDICAL TECHNOLOGY CO., LTD., priority 2022, published 2026)
